Test [1] concerns the target T1, E. coli dipeptide binding protein (DPP), fluorophore-conjugated cysteine mutants (Escherichia coli, UniProt P23847).
T1 construct: several single-Cys mutants (e.g. K394C) with fluorophore
The experiment in a line: Ligand affinity of dipeptide BP fluorescent conjugates (Kd range). The following applies: range over conjugates, n=21. The source says:
(§1) Molecular Cloning. […] Amplified products were cloned into one of the protein expression vectors pAED4 (Doering, “Functional and structural studies of a small f-actin binding domain” in Ph.D. thesis, Massachusetts Institute of Technology, 1992); pKK223-3 (Brosius & Holy, Proc. Natl. Acad. Sci. USA 81:6929-6933, 1984); or pET vectors (Studier et al., Meth. Enzymol. 185:60-89, 1990) (Novagen). N-terminal oligonucleotide primers were designed to clone only the processed periplasmic form, deleting the signal sequence. The C-terminal primer was designed to append the sequence Gly-Ser-Gly-(His)n or Gly-Ser-(His)n, where n=5, 6, or 10. Two tandem stop codons (TAATGA) follow the last His codon. […] Additionally the sequence of Fe(III) BP was mutated by substitution of Glu57 with Asp to raise the Kd to a concentration range conveniently measured using Fe(III) citrate.
(§2) Fluorophore conjugation to cysteine-substituted bPBPs. […] The efficiency of reporter group attachment was assessed by determination of unreacted thiol with Ellman's reagent (Ellman, Arch. Biochem. Biophys. 74:443-450, 1958) or by measuring the ratio of fluorophore to protein from absorbance spectra of the purified conjugate.
(§3) Fluorimetry. […] Fluorescence emission spectra were acquired with excitation and emission slit widths of 4 and 8 nm, respectively. […]

In test [2] the target is T2, E. coli dipeptide binding protein variant D450C, fluorophore conjugate (Escherichia coli, UniProt P23847, D478C).
T2 construct: initiator methionine (N); Gly-Ser-Gly-(His)n or Gly-Ser-(His)n (n = 5, 6 or 10) (C); made in house; host or cells: E. coli BL21-DE3
Kind of test: Fluorimetric titration of fluorophore conjugates. The following applies: peristeric site. From the text: (§4) Molecular Cloning. […] Amplified products were cloned into one of the protein expression vectors pAED4 (Doering, “Functional and structural studies of a small f-actin binding domain” in Ph.D. thesis, Massachusetts Institute of Technology, 1992); pKK223-3 (Brosius & Holy, Proc. Natl. Acad. Sci. USA 81:6929-6933, 1984); or pET vectors (Studier et al., Meth. Enzymol. 185:60-89, 1990) (Novagen). N-terminal oligonucleotide primers were designed to clone only the processed periplasmic form, deleting the signal sequence. The C-terminal primer was designed to append the sequence Gly-Ser-Gly-(His)n or Gly-Ser-(His)n, where n=5, 6, or 10. Two tandem stop codons (TAATGA) follow the last His codon. […] Single amino acid substitutions were generated by overlapping PCR mutagenesis (Ho et al., Gene 77:51-59, 1989). All clones and mutations were confirmed by nucleotide sequencing. In the case of arabinose BP, the single cysteine in the wild type sequence was replaced by alanine to eliminate the possibility of reporter group conjugation to this thiol (Miller et al., J. Biol. Chem. 254:7521-7528, 1979). Additionally the sequence of Fe(III) BP was mutated by substitution of Glu57 with Asp to raise the Kd to a concentration range conveniently measured using Fe(III) citrate.
(§5) Fluorophore conjugation to cysteine-substituted bPBPs. Thiol-reactive fluorophores obtained from Molecular Probes (Eugene, Oreg.) were 5-iodoacetamidofluorescein (fluorescein); N-(1-pyrene) iodoacetamide (pyrene); N,N′-dimethyl-N-(iodoacetyl)-N′-(7-nitrobenz-2-oxa-1,3-diazol-4-yl)ethylenediamide (NBD); N-((2-(iodoacetoxy)ethyl)-N-methyl)amino-7-nitrobenz-2-oxa-1,3-diazole (NBDE); and 6-acryloyl-2-dimethylaminonaphthalene (acrylodan). The styryl and naphthyl dyes JPW4039, JPW4042, and JPW4045 (FIG. 3) were synthesized at the University of Connecticut. All fluorophore conjugation steps were typically carried out at room temperature. To protein at a concentration of 100 μM was added tris-(2-carboxyethyl)phosphine HCl to a five-fold molar excess to reduce intermolecular disulfide bonds. A thiol-reactive fluorophore (20 to 25 mM in acetonitrile or dimethyl sulfoxide) was added in small aliquots to a five-fold molar excess over protein. Conjugation proceeded in the dark at room temperature for 4 hours, or overnight at 4° C. Separation of protein from unreacted fluorophore was achieved by exhaustive dialysis or by size-exclusion chromatography. The efficiency of reporter group attachment was assessed by determination of unreacted thiol with Ellman's reagent (Ellman, Arch. Biochem. Biophys. 74:443-450, 1958) or by measuring the ratio of fluorophore to protein from absorbance spectra of the purified conjugate.
(§6) Fluorimetry. All measurements were conducted with an SLM Aminco-Bowman series 2 fluorimeter, with sample stirring at 25° C. Fluorescence emission spectra were acquired with excitation and emission slit widths of 4 and 8 nm, respectively. Photomultiplier tube potential was maintained between 400 and 800 volts. Protein concentrations were in the range of 50 to 1000 nM. Fluorophore-specific excitation was at the following approximate wavelengths: tryptophan, 290 nm; acrylodan, 390 nm; fluorescein, 485 nm; pyrene, 340 nm; NBD and NBDE, 490 nm; JPW4039, 485 nm; JPW4042, 470 nm; JPW4045, 470 nm.
(§7) Corrections were made for dilution of the protein and for background signal from buffer. Binding curves were fit to binding isotherms using equation 3 or 4, as appropriate.
(§8) Analyte affinity measurements. […] The emission wavelength monitored was that of maximum difference in intensity between the ligand-free and bound states. For each conjugate, fluorescence intensiometric observations were fit to a hyperbolic binding isotherm for a two-state model (Marvin et al., Proc. Natl. Acad. Sci. USA 94:4366-4371, 1997): […]

Test [3] addresses T3, E. coli dipeptide binding protein variant K394C, fluorophore conjugate (Escherichia coli, UniProt P23847, K422C).
T3 construct: initiator methionine (N); Gly-Ser-Gly-(His)n or Gly-Ser-(His)n (n = 5, 6 or 10) (C); made in house; host or cells: E. coli BL21-DE3
Kind of test: Fluorimetric titration of fluorophore conjugates.
Text: as §4, §5, §6, §7, §8

Test [4] deals with T4, E. coli dipeptide binding protein variant R141C, fluorophore conjugate (Escherichia coli, UniProt P23847, R169C).
T4 construct: initiator methionine (N); Gly-Ser-Gly-(His)n or Gly-Ser-(His)n (n = 5, 6 or 10) (C); made in house; host or cells: E. coli BL21-DE3
Kind of test: Fluorimetric titration of fluorophore conjugates. Conditions: peristeric site.
Text: as §4, §5, §6, §7, §8

For test [5], the target named is T5, E. coli dipeptide binding protein variant S111C, fluorophore conjugate (Escherichia coli, UniProt P23847, S139C).
T5 construct: initiator methionine (N); Gly-Ser-Gly-(His)n or Gly-Ser-(His)n (n = 5, 6 or 10) (C); made in house; host or cells: E. coli BL21-DE3
The experiment in a line: Fluorimetric titration of fluorophore conjugates. The following applies: peristeric site.
Text: as §4, §5, §6, §7, §8

Test [6] concerns the target T6, E. coli dipeptide binding protein variant T44C, fluorophore conjugate (Escherichia coli, UniProt P23847, T72C).
T6 construct: initiation methionine (N); Gly-Ser-Gly-(His)n or Gly-Ser-(His)n (C); made in house; host or cells: E. coli BL21-DE3
Kind of test: Fluorimetric titration of fluorophore conjugates. Conditions: peristeric site.
Text: as §4, §5, §6, §7, §8

Test [7] concerns the target T7, E. coli dipeptide binding protein variant W315C, fluorophore conjugate (Escherichia coli, UniProt P23847, W343C).
T7 construct: initiation methionine (N); Gly-Ser-Gly-(His)n or Gly-Ser-(His)n (C); made in house; host or cells: E. coli BL21-DE3
Kind of test: Fluorimetric titration of fluorophore conjugates. Conditions: peristeric site.
Text: as §4, §5, §6, §7, §8

Test [8] concerns the target T8, E. coli ribose binding protein (RBP), fluorophore-conjugated cysteine mutants (Escherichia coli, UniProt P02925).
T8 construct: single-Cys mutants (e.g. T135C, E192C) with fluorophores
The experiment in a line: Ligand affinity of ribose BP fluorescent conjugates (Kd range). The following applies: range over conjugates, n=14.
Text: as §1, §2, §3

Test [9] has as its target T9, E. coli ribose binding protein variant A234C, fluorophore conjugate (Escherichia coli, UniProt P02925, A259C).
T9 construct: Gly-Ser-Gly-(His)n or Gly-Ser-(His)n, n=5, 6 or 10 (C); initiator methionine (N); made in house; host or cells: E. coli strain BL21-DE3
Kind of test: Fluorimetric titration of fluorophore conjugates. Conditions: ligand ribose.
Text: as §4, §5, §6, §7, §8

Test [10] addresses T10, E. coli ribose binding protein variant E192C, fluorophore conjugate (Escherichia coli, UniProt P02925, E217C).
T10 construct: Gly-Ser-Gly-(His)n or Gly-Ser-(His)n, n=5, 6 or 10 (C); initiator methionine (N); made in house; host or cells: E. coli strain BL21-DE3
Kind of test: Fluorimetric titration of fluorophore conjugates.
Text: as §4, §5, §6, §7, §8

In test [11] the target is T11, E. coli ribose binding protein variant L236C, fluorophore conjugate (Escherichia coli, UniProt P02925, L261C).
T11 construct: Gly-Ser-Gly-(His)n or Gly-Ser-(His)n, n=5, 6 or 10 (C); initiator methionine (N); made in house; host or cells: E. coli strain BL21-DE3
The experiment in a line: Fluorimetric titration of fluorophore conjugates. The following applies: ligand ribose.
Text: as §4, §5, §6, §7, §8

The target in test [12] is T12, E. coli ribose binding protein variant L265C, fluorophore conjugate (Escherichia coli, UniProt P02925, L290C).
T12 construct: Gly-Ser-Gly-(His)n or Gly-Ser-(His)n, n=5, 6 or 10 (C); initiator methionine (N); made in house; host or cells: E. coli strain BL21-DE3
The experiment in a line: Fluorimetric titration of fluorophore conjugates.
Text: as §4, §5, §6, §7, §8

T7 sequence (P23847 29-535 W343C): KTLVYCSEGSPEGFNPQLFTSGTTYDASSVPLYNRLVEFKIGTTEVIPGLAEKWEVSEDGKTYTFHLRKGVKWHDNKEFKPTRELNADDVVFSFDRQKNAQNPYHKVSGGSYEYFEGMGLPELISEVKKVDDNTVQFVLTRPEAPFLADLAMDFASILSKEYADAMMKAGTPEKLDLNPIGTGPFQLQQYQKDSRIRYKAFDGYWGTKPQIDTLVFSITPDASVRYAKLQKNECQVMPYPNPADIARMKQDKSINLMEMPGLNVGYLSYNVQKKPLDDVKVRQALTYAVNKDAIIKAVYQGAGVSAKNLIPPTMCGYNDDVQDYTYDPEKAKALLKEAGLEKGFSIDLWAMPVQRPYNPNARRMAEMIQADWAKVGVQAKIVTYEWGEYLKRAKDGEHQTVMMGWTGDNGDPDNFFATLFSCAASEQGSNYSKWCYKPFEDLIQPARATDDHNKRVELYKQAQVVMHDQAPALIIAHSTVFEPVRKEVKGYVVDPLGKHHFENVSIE
T11 sequence (P02925 26-296 L261C): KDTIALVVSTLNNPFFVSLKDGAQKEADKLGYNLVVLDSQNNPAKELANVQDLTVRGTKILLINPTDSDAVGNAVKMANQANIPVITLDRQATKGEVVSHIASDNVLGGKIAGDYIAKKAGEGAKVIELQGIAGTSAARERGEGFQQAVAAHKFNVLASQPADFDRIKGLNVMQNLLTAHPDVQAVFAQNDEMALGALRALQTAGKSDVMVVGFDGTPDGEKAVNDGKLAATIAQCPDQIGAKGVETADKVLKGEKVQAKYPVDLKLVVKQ
T9 sequence (P02925 26-296 A259C): as the sequence (P02925 26-296 L261C) above, with A234C, C236L counted along it
T5 sequence (P23847 29-535 S139C): as the sequence (P23847 29-535 W343C) above, with S111C, C315W counted along it
T2 sequence (P23847 29-535 D478C): as the sequence (P23847 29-535 W343C) above, with C315W, D450C counted along it
T10 sequence (P02925 26-296 E217C): as the sequence (P02925 26-296 L261C) above, with E192C, C236L counted along it
T3 sequence (P23847 29-535 K422C): as the sequence (P23847 29-535 W343C) above, with C315W, K394C counted along it
T6 sequence (P23847 29-535 T72C): as the sequence (P23847 29-535 W343C) above, with T44C, C315W counted along it
T4 sequence (P23847 29-535 R169C): as the sequence (P23847 29-535 W343C) above, with R141C, C315W counted along it
T1 sequence (P23847 29-535, stated change not applied): as the sequence (P23847 29-535 W343C) above, with C315W counted along it
T12 sequence (P02925 26-296 L290C): as the sequence (P02925 26-296 L261C) above, with C236L, L265C counted along it
T8 sequence (P02925 26-296, stated change not applied): as the sequence (P02925 26-296 L261C) above, with C236L counted along it

For orientation: Kd means the constant that tells how readily two partners part at equilibrium. For `CC(C)C[C@H](NC(=O)CN)C(=O)O` [Gly-Leu, Gly-Leu dipeptide], the “range of Kd” value in test [1] was in the range of 0.006 to 93 µM. For the same compound, the dissociation constant Kd in [2] (Acrylodan conjugate) is 11 µM; in test [2] (JPW4039 conjugate) it was 0.91 µM; in test [2] (JPW4042 conjugate) it was 1.5 µM; in [2] (JPW4045 conjugate) it was 2 µM; in test [3] (Kd, Acrylodan conjugate, peristeric site), 23 µM; in [3] (Kd, Fluorescein conjugate, peristeric site), 93 µM. In addition, the Kd in test [3] (Kd, JPW4039 conjugate, peristeric site) was 30 µM; in [3] (Kd, JPW4042 conjugate, peristeric site), 78 µM; in test [3] (Kd, NBD conjugate, peristeric site), 0.012 µM; in test [3] (affinity for Gly-Leu dipeptide (Kd), K394C-NBD conjugate), 0.006 µM; in test [3] (affinity for Gly-Leu dipeptide (Kd), K394C-fluorescein conjugate), 93 µM; in test [4] (Acrylodan conjugate) it was 2.3 µM. In addition, the dissociation constant Kd in [4] (Fluorescein conjugate) is 38 µM; in test [5] (Acrylodan conjugate), 4.8 µM; in [5] (Fluorescein conjugate), 2.6 µM; in test [5] (JPW4039 conjugate) it was 34 µM; in [5] (JPW4042 conjugate) it was 15.8 µM; in test [6] (Fluorescein conjugate), 0.64 µM. For the same compound, the Kd in test [6] (NBD conjugate) is 0.006 µM; in [7] (Acrylodan conjugate), 0.13 µM; in test [7] (JPW4039 conjugate), 1 µM; in [7] (JPW4045 conjugate), 3.2 µM; in test [7] (NBD conjugate), 0.06 µM.
With `OC1OC[C@@H](O)[C@@H](O)[C@H]1O` (stereo partly shown) [ribose], the “range of Kd” value in test [8] was 0.1 to 2090 µM. The dissociation constant Kd in test [9] (JPW4039 conjugate) came to 1.84 µM; in [9] (JPW4045 conjugate), 3.76 µM; in test [9] (NBD conjugate), 0.735 µM; in [10] (Kd, Fluorescein conjugate, E192C, ligand ribose), 11.4 µM; in test [10] (Kd, JPW4039 conjugate, E192C, ligand ribose), 2.57 µM; in test [10] (Kd, JPW4042 conjugate, E192C, ligand ribose), 5.03 µM. Further, the Kd in test [10] (Kd, JPW4045 conjugate, E192C, ligand ribose) came to 15 µM; in [10] (Kd, NBD conjugate, E192C, ligand ribose) it was 2.6 µM; in test [10] (affinity for ribose (Kd), E192C-JPW4039 conjugate) it was 2.6 µM; in test [10] (affinity for ribose (Kd), E192C-JPW4045 conjugate), 15 µM; in [10] (affinity for ribose (Kd), E192C-NBD conjugate), 2.6 µM; in test [11] (JPW4042 conjugate) it was 0.62 µM. Also, the equilibrium dissociation constant (Kd) is 1.53 µM in [11] (JPW4045 conjugate), 0.1 µM in [11] (NBD conjugate) and 0.26 µM in [12].

Source of the values: US9625458B2, “Biosensor” (priority 2002, dated 2017).
